For 35 molecules, IC50 results are on record in US6875771B2, “Pyridopyrimidine derivatives as 5-HT6 antagonists” (Bristol-Myers Squibb Company, priority 2002, dated 2005).

Molecules are shown by their SMILES.

For the test, the target named is T1, human 5-HT6 receptor (Homo sapiens, UniProt P50406).
T1 construct: expressed in transfected cells
Description: Radioligand binding at the 5-HT6 receptor (3H-LSD displacement). Particulars: inhibition of 3H-LSD (1.6 nM) binding; membranes of cell line stably expressing human 5-HT6 receptor; 60 minutes at 37° C. How it is done: Radioligand Binding at the 5-HT6 Receptor
Compounds of the present invention were evaluated using a cell line that stably expresses the human 5-HT6 receptor. Membranes prepared from the cell line were incubated with 3H-LSD (1.6 nM) in the presence of increasing concentrations (10^−10 to 10^−6 M) of test compounds for 60 minutes at 37° C. The reaction was terminated by vacuum filtration of the membranes and washing of the filters with assay buffer. Radioactivity retained on the filters was determined using liquid scintillation spectrometry. The potency of the test compound to inhibit 3H-LSD binding to the 5-HT6 receptor was defined as the concentration of compound required to inhibit 50% (IC50) of radioligand binding as determined by computer assisted analysis of the data. Clozapine was used as an internal standard for comparison.

T1 sequence (P50406 whole entry): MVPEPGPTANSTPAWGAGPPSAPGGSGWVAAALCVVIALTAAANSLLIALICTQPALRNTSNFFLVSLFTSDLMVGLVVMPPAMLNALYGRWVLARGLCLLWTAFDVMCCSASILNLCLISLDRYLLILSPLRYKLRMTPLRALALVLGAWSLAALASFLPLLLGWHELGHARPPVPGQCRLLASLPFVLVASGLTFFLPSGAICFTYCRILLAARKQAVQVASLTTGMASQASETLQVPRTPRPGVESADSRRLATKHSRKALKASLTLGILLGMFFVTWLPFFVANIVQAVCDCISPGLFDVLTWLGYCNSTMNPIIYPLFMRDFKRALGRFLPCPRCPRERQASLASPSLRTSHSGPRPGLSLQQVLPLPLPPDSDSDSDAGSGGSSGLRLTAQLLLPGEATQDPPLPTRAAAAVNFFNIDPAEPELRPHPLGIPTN

Usually IC50 stands for the concentration needed to halve the response being measured. High values mean a need for much substance, low ones inhibition by little substance. As for `CSc1nc2ccccn2c(=N)c1S(=O)(=O)c1ccc(Cl)cc1` [Example 1, 3-(4-Chloro-benzenesulfonyl)-2-methylsulfanyl-pyrido[1,2-a]pyrimidin-4-ylideneamine], the IC50 is less than 20 nM.
The figure for `CSc1nc2ccccn2c(=N)c1S(=O)(=O)c1ccccc1` [Example 2, 3-Benzenesulfonyl-2-methylsulfanyl-pyrido[1,2-a]pyrimidin-4-ylideneamine] is less than 20 nM; for `CSc1nc2ccccn2c(=N)c1S(=O)(=O)c1ccc2ccccc2c1` [Example 3, 2-Methylsulfanyl-3-(naphthalene-2-sulfonyl)-pyrido[2-a]pyrimidin-4-ylideneamine] it is 50 to 100 nM; for `CSc1nc2ccccn2c(=N)c1S(=O)(=O)c1cc(C)c(Cl)cc1C` [Example 4, 3-(2,5-Dimethyl-4-Chloro-benzenesulfonyl)-2-methylsulfanyl-pyrido[1,2-a]pyrimidin-4-ylideneamine] it is less than 20 nM.
The figure for `CSc1nc2ccccn2c(=N)c1S(=O)(=O)c1ccc(F)cc1` [Example 5, 3-(4-Fluoro-benzenesulfonyl)-2-methylsulfanyl-pyrido[1,2-a]pyrimidin-4-ylideneamine] is less than 20 nM.
The figure for `CSc1nc2ccccn2c(=N)c1S(=O)(=O)c1ccc(Cl)c(Cl)c1` [Example 6, 3-(3,4-Dichloro-benzenesulfonyl)-2-methylsulfanyl-pyrido[1,2-a]pyrimidin-4-ylideneamine] is less than 20 nM; for `CSc1nc2ccccn2c(=N)c1S(=O)(=O)c1ccccc1Cl` [Example 7, 3-(2-Chloro-benzenesulfonyl)-2-methylsulfanyl-pyrido[1,2-a]pyrimidin-4-ylideneamine] it is less than 20 nM.
`CSc1nc2ccccn2c(=N)c1S(=O)(=O)c1ccc(C(C)(C)C)cc1` [Example 8, 3-(4-t-Butyl-benzenesulfonyl)-2-methylsulfanyl-pyrido[1,2-a]pyrimidin-4-ylideneamine] had an IC50 of 50 to 100 nM.
With `CSc1nc2ccccn2c(=N)c1S(=O)(=O)c1ccc(OC(F)(F)F)cc1` [Example 9, 3-(4-Trifluoromethoxy-benzenesulfonyl)-2-methylsulfanyl-pyrido[1,2-a]pyrimidin-4-ylideneamine] the figure was 100 to 1000 nM; with `CSc1nc2c(C)cccn2c(=N)c1S(=O)(=O)c1ccccc1` [Example 10, 3-Benzenesulfonyl-9-methyl-2-methylsulfanyl-pyrido[1,2-a]pyrimidin-4-ylideneamine], less than 20 nM.
The figure for `CSc1nc2cc(C)ccn2c(=N)c1S(=O)(=O)c1ccccc1` [Example 11, 3-Benzenesulfonyl-8-methyl-2-methylsulfanyl-pyrido[1,2-a]pyrimidin-4-ylideneamine] is less than 20 nM.
The figure for `CSc1nc2ccc(Br)cn2c(=N)c1S(=O)(=O)c1ccccc1` [Example 12, 3-Benzenesulfonyl-7-bromo-2-methylsulfanyl-pyrido[1,2-a]pyrimidin-4-ylideneamine] is less than 20 nM.
On to `CSc1nc2ccc(Cl)cn2c(=N)c1S(=O)(=O)c1ccccc1` [Example 13, 3-Benzenesulfonyl-7-chloro-2-methylsulfanyl-pyrido[1,2-a]pyrimidin-4-ylideneamine], for which the IC50 was less than 20 nM.
With `CSc1nc2ccc(C)cn2c(=N)c1S(=O)(=O)c1ccccc1` [Example 14, 3-Benzenesulfonyl-7-methyl-2-methylsulfanyl-pyrido[1,2-a]pyrimidin-4-ylideneamine] the figure was less than 20 nM.
In turn, `CSc1nc2c(Br)cc(C)cn2c(=N)c1S(=O)(=O)c1ccccc1` [Example 15, 3-Benzenesulfonyl-9-bromo-7-methyl-2-methylsulfanyl-pyrido[1,2-a]pyrimidin-4-ylideneamine] yielded a 50% inhibitory concentration (IC50) of 100 to 1000 nM.
`CSc1nc2c(C)cc(Br)cn2c(=N)c1S(=O)(=O)c1ccccc1` [Example 16, 3-Benzenesulfonyl-7-bromo-9-methyl-2-methylsulfanyl-pyrido[1,2-a]pyrimidin-4-ylideneamine] yielded an IC50 of less than 20 nM.
With `CCc1ccn2c(=N)c(S(=O)(=O)c3ccccc3)c(SC)nc2c1` [Example 17, 3-Benzenesulfonyl-8-ethyl-2-methylsulfanyl-pyrido[1,2-a]pyrimidin-4-ylideneamine] the figure was 50 to 100 nM; with `CCCc1ccn2c(=N)c(S(=O)(=O)c3ccccc3)c(SC)nc2c1` [Example 18, 3-Benzenesulfonyl-2-methylsulfanyl-8-propyl-pyrido[1,2-a]pyrimidin-4-ylideneamine], 100 to 1000 nM; with `COC(=O)c1ccc2nc(SC)c(S(=O)(=O)c3ccccc3)c(=N)n2c1` [Example 19, 3-Benzenesulfonyl-4-imino-2-methylsulfanyl-4H-pyrido[1,2-a]pyrimidine-7-carboxylic acid methyl ester], 100 to 1000 nM.
`CSc1nc2c(C)cc(Cc3ccccc3)cn2c(=N)c1S(=O)(=O)c1ccccc1` [Example 20, 3-Benzenesulfonyl-7-benzyl-9-methyl-2-methylsulfanyl-pyrido[1,2-a]pyrimidin-4-ylideneamine] yielded an IC50 of 50 to 100 nM.
With `CSc1nc2ccc(F)cn2c(=N)c1S(=O)(=O)c1ccccc1` [Example 21, 3-Benzenesulfonyl-7-fluoro-2-methylsulfanyl-pyrido[1,2-a]pyrimidin-4-ylideneamine] the figure was less than 20 nM.
With `CSc1nc2c(OCc3ccccc3)cccn2c(=N)c1S(=O)(=O)c1ccccc1` [Example 22, 3-Benzenesulfonyl-9-benzyloxy-2-methylsulfanyl-pyrido[1,2-a]pyrimidin-4-ylideneamine] the figure was 100 to 1000 nM; with `CSc1nc2c3ccccc3ccn2c(=N)c1S(=O)(=O)c1ccccc1` [Example 23, 3-Benzenesulfonyl-2-methylsulfanyl-pyrimido[2,1-a]isoquinolin-4-ylideneamine], 50 to 100 nM.
With `CSc1nc2c3ncccc3ccn2c(=N)c1S(=O)(=O)c1ccccc1` [Example 24, 7-Benzenesulfonyl-6-methylsulfanyl-4,5,8a-triaza-phenanthren-8-ylideneamine] the figure was 50 to 100 nM; with `CSc1nc2ccc(C(N)=O)cn2c(=N)c1S(=O)(=O)c1ccccc1` [Example 25, 3-Benzenesulfonyl-4-imino-2-methylsulfanyl-4H-pyrido[1,2-a]pyrimidine-7-carboxylic acid amide], less than 20 nM.
`CNc1nc2ccccn2c(=N)c1S(=O)(=O)c1ccccc1` [Example 26] yielded an IC50 of less than 20 nM.
With `CCNc1nc2ccccn2c(=N)c1S(=O)(=O)c1ccccc1` [Example 27, 3-(Benzenesulfonyl-4-imine-4H-pyrido[1,2-a]pyrimidin-2-yl)-ethyl-amine], the IC50 was less than 20 nM.
In the case of `Cc1ccc(Nc2nc3ccc(C)cn3c(=N)c2S(=O)(=O)c2ccccc2)nc1` [Example 28], the IC50 was in the range of 50 to 100 nM.
`N=c1c(S(=O)(=O)c2ccccc2)c(NCCO)nc2ccccn12` [Example 29, 2-(3-Benzenesulfonyl-4-imino-4H-pyrido[1,2-a]pyrimidin-2-ylamino)-ethanol] gave an IC50 of less than 20 nM.
The figure for `COc1nc2ccccn2c(=N)c1S(=O)(=O)c1ccccc1` [Example 30, 3-Benzenesulfonyl-2-methoxy-pyrido[1,2-a]pyrimidin-4-ylideneamine] is less than 20 nM; for `CCOc1nc2ccccn2c(=N)c1S(=O)(=O)c1ccccc1` [Example 31, 3-Benzenesulfonyl-2-ethoxy-pyrido[1,2-a]pyrimidin-4-ylideneamine] it is less than 20 nM; for `C[S+]([O-])c1nc2ccccn2c(=N)c1S(=O)(=O)c1ccccc1` (centres unmarked) [Example 32, 3-Benzenesulfonyl-2-methanesulfinyl-pyrido[1,2-a]pyrimidin-4-ylideneamine] it is 100 to 1000 nM.
In the case of `CN=c1c(S(=O)(=O)c2ccccc2)c(SC)nc2ccccn12` [Example 33], the IC50 fell in the range of 100 to 1000 nM.
In turn, `CSc1nc2ccccn2c(=NC(C)=O)c1S(=O)(=O)c1ccccc1` [Example 34, N-(3-Benzenesulfonyl-2-methylsulfanyl-pyrido[1,2-a]pyrimidin-4-ylidene)-acetamide] showed an IC50 of 50 to 100 nM.
As for `CSc1nc2ccccn2c(=O)c1S(=O)(=O)c1ccccc1` [Example 35, 3-Benzenesulfonyl-2-methylsulfanyl-pyrido[1,2-a]pyrimidin-4-one], the IC50 is 50 to 100 nM.
